The test has as its target human CXCR3-A receptor (Homo sapiens (Human), UniProt P49682). The experiment in a line: 125I-CXCL10 competition radioligand binding assay.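 Note: One-hour incubation of membranes with tracer, bound radioligand separated by glass fibre filtration, IC50 derived from four-parameter nonlinear fit of competition curves.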 The following applies: displacement of 125I-CXCL10 from membranes of CHO cells expressing human recombinant CXCR3-A. (In general: Loss of bound radioactivity is the signal in a displacement assay; it reports binding, not function.)
human CXCR3-A receptor, sequence (P49682 whole entry): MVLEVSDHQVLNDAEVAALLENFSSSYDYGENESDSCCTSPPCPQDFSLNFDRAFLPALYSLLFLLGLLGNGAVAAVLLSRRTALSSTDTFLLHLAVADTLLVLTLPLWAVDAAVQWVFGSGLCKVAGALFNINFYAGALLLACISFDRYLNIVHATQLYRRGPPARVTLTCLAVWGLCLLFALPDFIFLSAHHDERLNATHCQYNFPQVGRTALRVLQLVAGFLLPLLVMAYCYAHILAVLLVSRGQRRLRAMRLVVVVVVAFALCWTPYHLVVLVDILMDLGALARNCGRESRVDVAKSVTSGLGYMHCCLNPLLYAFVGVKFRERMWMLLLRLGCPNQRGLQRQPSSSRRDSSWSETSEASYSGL
For orientation: IC50 means the concentration that inhibits the measured activity by half. Take `CCCCN(Cc1ccc(OCCN2C(=O)CCC2=O)c(C)c1)C1c2ccc(Cl)cc2CC1C(=O)O` (stereo not shown) [Example 173, 1-(Butyl-{4-[2-(2,5-dioxo-pyrrolidin-1-yl)-ethoxy]-3-methyl-benzyl}-amino)-5-chloro-indan-2-carboxylic acid]: the IC50 was 603 nM.

Consider `COc1cc(CN(CC2CCCCC2)C(CC(=O)O)c2ccc(C(F)(F)F)cc2)ccc1OCCN1C(=O)CCC1=O` (stereo not shown) [Example 181, 3-(Cyclohexylmethyl-{4-[2-(2,5-dioxo-pyrrolidin-1-yl)-ethoxy]-3-methoxy-benzyl}-amino)-3-(4-trifluoromethyl-phenyl)-propionic acid], for which the IC50 was found to be 507 nM.

Turning to `CCCCN(Cc1ccc(OCCN2C(=O)CCC2=O)c(C)c1)C(CC(=O)O)c1ccc(Cl)c(F)c1` (stereo not shown) [Example 76, 3-(Butyl-{4-[2-(2,5-dioxo-pyrrolidin-1-yl)-ethoxy]-3-methyl-benzyl}-amino)-3-(4-chloro-3-fluoro-phenyl)-propionic acid], the IC50 was determined as 54 nM.

`Cc1cc(CN(CC2CCC2)[C@@H](CC(=O)O)c2ccc(Cl)cc2)ccc1OCCN1C(=O)CCC1=O` [Example 71, (S)-3-(4-Chloro-phenyl)-3-(cyclobutylmethyl-{4-[2-(2,5-dioxo-pyrrolidin-1-yl)-ethoxy]-3-methyl-benzyl}-amino)-propionic acid]: the IC50 stood at 54 nM.

Source of the values: patent US9447038B2 (SANOFI, priority 2012, dated 2016).
